Tests used:
Rattus norvegicus [1] = assay: Anticonvulsant activity in sc dosed Sprague-Dawley rat assessed as protection against maximal electroshock-induced convulsion administered 30 mins prior to application of shock via corneal electrodes; format: functional, organism-based
[2] = molecular target: Voltage-gated potassium channel, KQT; KCNQ2(Kv7.2)/KCNQ3(Kv7.3) (Homo sapiens) (UniProt O43526+O43525); assay: Activation of human Kv7.2/7.3 expressed in CHOK1 cells assessed as increase in current amplitude relative to control; format: cell-based; conditions: CHO-K1
[3] = molecular target: Voltage-gated potassium channel, IKs; KCNQ1(Kv7.1)/KCNE1(MinK) (Homo sapiens, UniProt P15382+P51787); assay: Activation of human Kv7.1/KCNE1 expressed in CHOK1 cells; format: cell-based, CHO-K1
[4] = molecular target: Voltage-gated potassium channel KCNQ3/KCNQ5 (Homo sapiens, UniProt O43525+Q9NR82); assay: Activation of human Kv7.3/7.5 expressed in CHOK1 cells assessed as increase in current amplitude relative to control; format: cell-based; conditions: CHO-K1
[5] = molecular target: Voltage-gated potassium channel, IKs; KCNQ1(Kv7.1)/KCNE1(MinK) (Homo sapiens, UniProt P51787+P15382); assay: Activation of human Kv7.1/KCNE1 expressed in CHOK1 cells assessed as increase in current amplitude relative to control; format: cell-based; conditions: cho-k1
[6] = molecular target: Potassium voltage-gated channel subfamily KQT member 2/member 3 (Rattus norvegicus) (UniProt O88943+O88944); assay: Activation of rat Kv7.2/7.3 expressed in CHOK1 cells assessed as increase in current amplitude relative to control; format: cell-based; conditions: CHO-K1
[7] = molecular target: T1, Potassium voltage-gated channel subfamily KQT member 4 (Rattus norvegicus) (UniProt Q9JK96); assay: Activation of rat Kv7.4 expressed in CHOK1 cells assessed as increase in current amplitude relative to control; format: cell-based; conditions: CHO-K1
T1 sequence (whole entry): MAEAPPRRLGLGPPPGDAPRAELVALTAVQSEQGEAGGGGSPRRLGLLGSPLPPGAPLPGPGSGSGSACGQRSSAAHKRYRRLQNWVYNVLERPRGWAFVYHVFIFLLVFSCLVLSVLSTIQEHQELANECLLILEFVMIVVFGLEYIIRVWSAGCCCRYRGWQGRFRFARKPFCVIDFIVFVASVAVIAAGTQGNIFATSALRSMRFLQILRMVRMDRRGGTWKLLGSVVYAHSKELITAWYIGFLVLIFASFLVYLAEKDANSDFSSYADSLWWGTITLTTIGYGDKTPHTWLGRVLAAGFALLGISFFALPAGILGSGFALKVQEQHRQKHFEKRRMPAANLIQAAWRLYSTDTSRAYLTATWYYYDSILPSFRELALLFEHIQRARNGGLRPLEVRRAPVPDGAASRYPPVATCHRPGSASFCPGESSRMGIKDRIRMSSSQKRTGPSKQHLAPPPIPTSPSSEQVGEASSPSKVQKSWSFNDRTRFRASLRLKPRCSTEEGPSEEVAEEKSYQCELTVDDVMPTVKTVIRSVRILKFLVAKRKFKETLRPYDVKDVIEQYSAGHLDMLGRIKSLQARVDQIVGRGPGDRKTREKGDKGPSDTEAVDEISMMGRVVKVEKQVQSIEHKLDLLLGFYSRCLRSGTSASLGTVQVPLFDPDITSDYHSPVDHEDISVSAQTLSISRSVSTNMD

[8] = Permeability in dog RRCK cells after 2 hrs by transwell assay; format: ADME, cell-based, Canis lupus familiaris, MDCKII-LE; conditions: mdck, read-out: permeability
MDCK = assay: Efflux ratio of permeability from basolateral to apical over apical to basolateral side in MDCK cells transfected with MDR1; format: ADME, cell-based, Canis lupus familiaris; conditions: dog
Plasma [9] = assay: Unbound plasma concentration in Sprague-Dawley rat at 3 mg/kg, sc administered at 30 mins by LC-MS/MS analysis; format: ADME, organism-based; conditions: in vivo, 0.5 h
Brain [10] = assay: Fraction unbound in Sprague-Dawley rat brain at 10 mg/kg, sc administered at 30 mins by LC-MS/MS analysis; format: ADME, organism-based; conditions: in vivo, 0.5 h
[11] = Ratio of free drug level in plasma to brain in Sprague-Dawley rat at 1 mg/kg, sc administration at 30 mins; format: ADME, organism-based; conditions: in vivo, 0.5 h
[12] = Ratio of free drug level in plasma to brain in Sprague-Dawley rat at 3 mg/kg, sc administration at 30 mins; format: ADME, organism-based; conditions: in vivo, 0.5 h
[13] = Ratio of free drug level in plasma to brain in Sprague-Dawley rat at 30 mg/kg, sc administration at 30 mins; format: ADME, organism-based; conditions: in vivo, 0.5 h
Plasma [14] = assay: Unbound plasma concentration in Sprague-Dawley rat at 1 mg/kg, po administered at 60 mins by LC-MS/MS analysis; format: ADME, organism-based; conditions: in vivo, 1 h
Plasma [15] = assay: Unbound plasma concentration in Sprague-Dawley rat at 3 mg/kg, po administered at 60 mins by LC-MS/MS analysis; format: ADME, organism-based; conditions: in vivo, 1 h
Plasma [16] = assay: Unbound plasma concentration in Sprague-Dawley rat at 30 mg/kg, po administered at 60 mins by LC-MS/MS analysis; format: ADME, organism-based; conditions: in vivo, 1 h
Brain [17] = assay: Fraction unbound in Sprague-Dawley rat brain at 1 mg/kg, po administered at 60 mins by LC-MS/MS analysis; format: ADME, organism-based; conditions: in vivo, 1 h
Brain [18] = assay: Fraction unbound in Sprague-Dawley rat brain at 30 mg/kg, po administered at 60 mins by LC-MS/MS analysis; format: ADME, organism-based; conditions: in vivo, 1 h
Rattus norvegicus [19] = assay: Anticonvulsant activity in Sprague-Dawley rat assessed as protection against maximal electroshock-induced convulsion at 10 mg/kg, sc administered 30 mins prior to application of shock via corneal electrodes relative to control; format: functional
Rattus norvegicus [20] = assay: Anticonvulsant activity in Sprague-Dawley rat assessed as protection against maximal electroshock-induced convulsion at 30 mg/kg, sc administered 30 mins prior to application of shock via corneal electrodes relative to control; format: functional
Rattus norvegicus [21] = assay: Anticonvulsant activity in Sprague-Dawley rat assessed as protection against maximal electroshock-induced convulsion at 3 mg/kg, po administered 60 mins prior to application of shock via corneal electrodes relative to control; format: functional
[22] = Fraction unbound in rat brain by equilibrium dialysis method; format: ADME, tissue-based

Sequence of Voltage-gated potassium channel, IKs; KCNQ1(Kv7.1)/KCNE1(MinK) (Homo sapiens, UniProt P51787+P15382) (P51787 whole entry): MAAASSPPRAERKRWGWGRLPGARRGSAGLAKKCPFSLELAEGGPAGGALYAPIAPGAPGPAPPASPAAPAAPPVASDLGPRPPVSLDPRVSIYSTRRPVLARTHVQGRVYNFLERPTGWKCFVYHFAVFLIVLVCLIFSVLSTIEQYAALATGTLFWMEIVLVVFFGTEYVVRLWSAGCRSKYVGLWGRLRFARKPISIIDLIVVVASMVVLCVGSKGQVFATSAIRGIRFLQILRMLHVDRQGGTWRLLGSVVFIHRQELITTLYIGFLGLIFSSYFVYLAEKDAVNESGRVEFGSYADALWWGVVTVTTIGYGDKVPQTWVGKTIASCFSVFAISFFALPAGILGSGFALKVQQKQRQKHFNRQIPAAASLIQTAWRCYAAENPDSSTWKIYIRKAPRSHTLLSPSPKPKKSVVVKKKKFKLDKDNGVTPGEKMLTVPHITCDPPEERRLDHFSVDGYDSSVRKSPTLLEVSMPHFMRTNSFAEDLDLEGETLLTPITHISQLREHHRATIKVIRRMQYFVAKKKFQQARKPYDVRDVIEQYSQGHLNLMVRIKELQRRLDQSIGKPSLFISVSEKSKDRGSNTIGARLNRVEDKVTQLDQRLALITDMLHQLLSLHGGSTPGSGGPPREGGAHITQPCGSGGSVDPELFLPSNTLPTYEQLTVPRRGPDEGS
Sequence of Voltage-gated potassium channel, IKs; KCNQ1(Kv7.1)/KCNE1(MinK) (Homo sapiens, UniProt P15382+P51787) (P51787 whole entry): as the sequence (P51787 whole entry) above

Activity [2]: 265%
EC50 [3]: > 100 µM
Activity [4]: 246%
Activity [5]: 84%
Activity [6]: 237%
Activity [7]: 161%
Papp at 2 h [8]: 24.9 ×10⁻⁶ cm/s
Ratio (MDCK): 1.25
Cp(f) (Plasma [9]): 151 nM
Drug uptake(free) (Brain [10]): 125 nM
Ratio [11]: 0.57
Ratio [12]: 0.59
Ratio [13]: 0.55
Cp(f) (Plasma [14]): 15 nM
Cp(f) (Plasma [15]): 109 nM
Cp(f) (Plasma [16]): 572 nM
Drug uptake(free) (Brain [17]): 6 nM
Drug uptake(free) (Brain [18]): 274 nM
fraction unbound [22]: 0.13
SMILES: COc1nc(N2CCC(OC)CC2)nc(OC)c1NC(=O)CC(C)(C)C
Activity (Rattus norvegicus [1]): Dose-dependent effect
Activity (Rattus norvegicus [19]): 100%
Activity (Rattus norvegicus [20]): 100%
Activity (Rattus norvegicus [21]): 88%
